Laboratory results: patent publication US20250177473A1, “PEPTIDE REGULATORS OF METABOLISM” (Metabico, Inc., priority 2022, published 2025)

Test system: M67 (Stat1/Stat3) luciferase reporter
Test: M67 (Stat1/Stat3) luciferase reporter in HepG2 cells
Assay type: cell-based, human
Conditions: 16 hours; for Stat3 (M67) reporter activity with three PPAR antagonists: GW 6471 + T0070907 + GSK3787 applied together with EPSI 0.05 mg/mL; for effect of co-applied inhibitor/antagonist on EPSI-induced M67 reporter activation: EPSI 0.05 mg/mL + inhibitor (pravastatin 10 μM; SC144; NF 449)
Description: Luciferase reporters used in the study: • M67 luciferase reporter.
The use of Stat1 inhibitor is required to distinguish the effects of Stat1 and Stat3.
HepG2 human hepatocyte carcinoma cell line (HB-8065, ATCC, USA).
HepG2 cells were cultured in a complete DMEM medium containing 15% FBS.
HepG2 cells were electroporated with 10 μg of purified plasmid DNA and 0.1 μg of pRL-CMV Renilla luciferase control reporter vector (Promega, Madison, WI, USA) using the Neon Transfection System (Thermo Fisher Scientific, Waltham, MA, USA) and the following regimens: three 20 ms 1230 V pulses.
Luciferase activity was measured in Luminometer 20/20n (TurnerBioSystems, Sunnwale, USA) using Dual-Luciferase Reporter Assay System (Promega, Madison, USA) following the manufacturer's protocol.
DY 268 (Tocris Cat. No. 5656) • PPAR-alpha: GW 6471 (Tocris, Cat. No. 4618) • PPAR-gamma: T0070907 (Selleck Chemicals, Catalog No. S2871) • PPAR-delta: GSK3787 (Selleck Chemicals, Catalog No. S8025) • LEPR.
HepG2 cells were electroporated with 10 μg of purified plasmid DNA of M67 reporter and 0.1 μg of pRL-CMV Renilla luciferase control reporter vector (Promega, Madison, WI, USA) using the Neon Transfection System (Thermo Fisher Scientific, Waltham, MA, USA) and the following regimens: three 20 ms 1230 V pulses.
Detection of luciferase signals was performed 16 hours after the compounds' application. Luciferase activity was measured in Luminometer 20/20n (TurnerBioSystems, Sunnwale, USA) using Dual-Luciferase Reporter Assay System (Promega, Madison, USA) following the manufacturer's protocol.

Structure (SMILES)	Stat3 (M67) reporter activity with three PPAR antagonists	effect of co-applied inhibitor/antagonist on EPSI-induced M67 reporter activation
O=C(NCCS(=O)(=O)c1ccc(C(F)(F)F)cn1)c1ccc(Cl)cc1 [GSK3787]	significant induction	–
CCC(=O)NC[C@H](Cc1ccc(OCCc2nc(-c3ccccc3)oc2C)cc1)N/C(C)=C\C(=O)c1ccc(C(F)(F)F)cc1 [GW 6471]	significant induction	–
O=C(Nc1cc(C(=O)Nc2ccc(S(=O)(=O)O)cc2S(=O)(=O)O)cc(C(=O)Nc2ccc(S(=O)(=O)O)cc2S(=O)(=O)O)c1)Nc1cc(C(=O)Nc2ccc(S(=O)(=O)O)cc2S(=O)(=O)O)cc(C(=O)Nc2ccc(S(=O)(=O)O)cc2S(=O)(=O)O)c1 [NF 449]	–	partially inversed
O=C(NNc1nc2cc(F)ccc2n2cccc12)c1cnccn1 [SC144]	–	partially inversed
O=C(Nc1ccncc1)c1cc([N+](=O)[O-])ccc1Cl [T0070907]	significant induction	–
